Here are results for one molecule from US20160184459A1, “CANCER CELL SPECIFIC IMAGING PROBES AND METHODS OF USE” (THE RESEARCH FOUNDATION FOR THE STATE UNIVERSITY OF NEW YORK, priority 2013, published 2016).

The subject of series [1] is CCD841-CoN. The experiment in a line: Cell viability assays, normal colon cells. As to conditions: negative control cells. The class given is cell-based, human. How it is done:
FIG. 15. Inhibition of cell viability by BKAc-Puro. The cell lines were grown and analyzed as in FIG. 12.
FIG. 18. Selective cytotoxicity by BKAc-Puro on pancreatic cancer cells. Pancreatic cancer (BXPC-3 and Miapaca-2), colon cancer (HCT116 as a positive control sensitive to the drug), and normal colon (CCD841-CoN as a negative control) cells were grown and analyzed as in FIG. 13. BKAc-Puro can effectively cause cell death on pancreatic cancer cells (BXPC-3 and MiaPaca-2) that are known to resistant to conventional chemotherapeutic drugs including 5-FU and Gemicitabine.
FIG. 19. Selective cytotoxicity by BKAc-Puro on prostate cancer cells. Prostate cancer (PC-3, DU-145, and LNCaP), colon cancer (HCT116 as a positive control sensitive to the drug), and normal colon (CCD841-CoN as a negative control) cells were grown and analyzed as in FIG. 13. BKAc-Puro can effectively cause cell death on prostate cancer cells.
Cell number was determined by cell counting using improved Neubauer hemacytometer. Cell viability was calculated as the number of viable cells divided by the total number of cells using Trypan Blue Stain (Invitrogen) to distinguish non-viable cells. Data were obtained from duplicated samples with quadruplicate measurements. […] After additional 2-3 h incubation, the absorbance of the formazan at 490 nm was measured by the microplate reader. […]

Series [2] deals with pancreatic cancer cells (BXPC-3 and MiaPaca-2). As to the kind of experiment: Cell viability assay, pancreatic cancer cells. Format: cell-based, human. Particulars: MTS. How it is done:
FIG. 16. Anticancer effect of BKAc-Puro on pancreatic cell lines. The cell lines were treated with DMSO (vehicle), BKAc-Puro (54 μM), or Puro (4.2 μM) for 5 d followed by MTS assay. Normal Eph4 (non-pancreatic) cells are shown as control. Data represent mean values of triplicate measurements±s.d.
FIG. 18. Selective cytotoxicity by BKAc-Puro on pancreatic cancer cells. Pancreatic cancer (BXPC-3 and Miapaca-2), colon cancer (HCT116 as a positive control sensitive to the drug), and normal colon (CCD841-CoN as a negative control) cells were grown and analyzed as in FIG. 13. […]
(§1) Cell number was determined by cell counting using improved Neubauer hemacytometer. Cell viability was calculated as the number of viable cells divided by the total number of cells using Trypan Blue Stain (Invitrogen) to distinguish non-viable cells. […] After additional 2-3 h incubation, the absorbance of the formazan at 490 nm was measured by the microplate reader. […] Determination of non-viable cells using PI staining was performed by adding 1 μg/ml of PI solution (Sigma) to the cell culture, prior to the examination under fluorescence microscopy (Axiovert 3, Carl Zeiss) through a×32 objective equipped with a digital imaging processor (Infinity 3, Lumenera).

For series [3], the system named is breast cancer cells (MCF-7 and MDA-MB-231). The experiment in a line: PI staining cytotoxicity, breast cancer cells. The class given is cell-based. On the procedure: FIG. 17. Selective cytotoxicity by BKAc-Puro on breast cancer cells. Normal mammary gland epithelial cells (Eph4) and breast cancer cells (MCF-7 and MDA-MB-231) were grown and analyzed as in FIG. 10. BF, bright field. PI, fluorescent PI channel. BKAc-Puro can selectively cause cell death in breast cancer cells (MCF-7 and MDA-MB-231) while leaving normal Eph4 cells unharmed.
as §1, with “cells. Data were obtained from duplicated samples with quadruplicate measurements. MTS based cell viability assay was performed using CellTiter 96 Aqueous Cell Proliferation Assay (Promega) according to the manufacturer's instruction.” for “cells.”

A short description of series [4]: Toxicity / body weight change in mice. Format: in vivo, mouse. An excerpt:
FIG. 20. In vivo anticancer efficacy of BKAc-Puro. […] HCT116 cells were implanted subcutaneously into female nude mice. When the developed tumors reached 200 mm^3, animals were intraperitoneally injected by the indicated dose of the compound or vehicle control (DMSO). Tumor volume was estimated by the equation vol=(a×b^2)/2, where vol, a, and b represent volume, the length of the major axis, and the length of the minor axis, respectively. Arrows indicate the time points of treatment. (b) Body weight change during the treatment in a. Value is expressed in percent change compared to the day of the first treatment.
FIG. 21. HCT116 cells were implanted subcutaneously into female nude mice. When palpable tumors reached 50-150 mm^3, animals were randomized and treated by the indicated dose of the compound or vehicle control (DMSO) via intraperitoneal injection. Tumor incidence is presented as number of mice developed tumor (volume >300 mm^3) after 2 weeks of daily treatment/number of mice treated. Tumor volume was estimated by the equation vol=(a×b^2)/2, where vol, a, and b represent volume, the length of the major axis, and the length of the minor axis, respectively.
FIG. 22. Dose escalation toxicity study. Female nude mice (8-10 weeks old) were treated with the indicated dose of BKAc-Puro (7, 20, 67, 200, and 400 mg/kg; n=3 in each treatment group). Body weight change during the treatment is expressed in percent change compared to the day of the first treatment. Arrows indicate the time points of treatment. Data represent mean values±s.d. (n=3).
FIG. 29. In vivo anticancer efficacy of Boc-KAc-Puro. (a) Tumor growth in HCT116 xenograft model. Animals were treated with acidified saline control or Boc-KAc-Puro (50 or 150 mg/kg). Values are mean±s.d. (n=5 mice per group). *** P<0.001 compared to the control group. P=0.000716 (50 mg/kg), P=0.000349 (150 mg/kg) at 10 d. (b) Body weight change during the treatment in a and was monitored as a sign of general animal health. Values are mean±s.d. (c) Tumor growth in HT29 xenograft model. Animals were treated with acidified saline control or Boc-KAc-Puro (150 mg/kg). Values are mean±s.d. (n=5 mice per group). *** P<0.001 compared to the control group. P=0.000514 (150 mg/kg) at 10 d. (d) Body weight change during the treatment in c was monitored as a sign of general animal health. Values are mean±s.d. (e) Levels of Puro-incorporated proteins were monitored by immunoblotting. Animals bearing HT29 xenograft tumor were given daily intraperitoneal administration of the prodrug at 150 mg/kg/dose for 3 d, followed by preparation of tissue lysates. The lower panel (anti-α-Tubulin) served as a loading control.

For the molecule `COc1ccc(CC(NC(=O)C(CCCCNC(C)=O)NC(=O)OC(C)(C)C)C(=O)NC2C(O)[C@H](n3cnc4c(N(C)C)ncnc43)O[C@@H]2CO)cc1` (stereo partly drawn) [BKAc-Puro, N-[3′-(α-Amino-p-methoxyhydrocinnamamido)-3′-deoxy-N,N-dimethyldenosinyl)-N-α-(t-butoxycarbonyl]-N-ε-acetyl-L-lysineamide], the “Effect on normal colon cells” value in series [1] is listed as “relatively little effect”. Besides, in series [2] (54 μM, 5 d), the “Effect on cell viability” value is on record as “also effective”. Moreover, the values for the Cell death entry in series [2] (dose-response) and in series [3] were “effectively caused cell death” and “selectively caused cell death”, respectively. Besides, the “Tolerability judged by weight loss” value in series [4] (150 mg/kg/dose daily intraperitoneal for 10 d) was “well-tolerated”. Moreover, the Toxicity result is on record as “No toxicity was observed” in series [4] (400 mg/kg, during and after 14 injections, HCT116 xenograft mice); “no toxicity was observed” in series [4] (tumor incidence study groups, daily intraperitoneal treatment). In addition, in series [4] (up to 400 mg/kg, 5 consecutive daily injections, female nude mice), the “Systemic toxicity, dose escalation” value was “No severe systemic toxicity was observed”.
